Common to all, as to format: cell-based
For experiment [1], the target named is Sodium-dependent dopamine transporter (Homo sapiens) (UniProt Q01959). Nature of the experiment: Inhibition of radioligand [125I]RTI-55 binding to human Dopamine transporter in clonal cells.
Experiment [2] has as its target Sodium-dependent serotonin transporter (Homo sapiens) (UniProt P31645). As to the kind of experiment: Inhibition of [125I]RTI-55 binding to human SERT in clonal cells.
Experiment [3] concerns the target Sodium-dependent dopamine transporter (Homo sapiens) (UniProt Q01959). Nature of the experiment: Inhibition of [3H]dopamine uptake in HEK293 cells expressing recombinant Dopamine transporter.

Several values for one entry are separate records, joined by “and”; a condition that tells them apart may be missing. Equal entries are not always repeated.

Sodium-dependent serotonin transporter (Homo sapiens), sequence (P31645 whole entry, looked up): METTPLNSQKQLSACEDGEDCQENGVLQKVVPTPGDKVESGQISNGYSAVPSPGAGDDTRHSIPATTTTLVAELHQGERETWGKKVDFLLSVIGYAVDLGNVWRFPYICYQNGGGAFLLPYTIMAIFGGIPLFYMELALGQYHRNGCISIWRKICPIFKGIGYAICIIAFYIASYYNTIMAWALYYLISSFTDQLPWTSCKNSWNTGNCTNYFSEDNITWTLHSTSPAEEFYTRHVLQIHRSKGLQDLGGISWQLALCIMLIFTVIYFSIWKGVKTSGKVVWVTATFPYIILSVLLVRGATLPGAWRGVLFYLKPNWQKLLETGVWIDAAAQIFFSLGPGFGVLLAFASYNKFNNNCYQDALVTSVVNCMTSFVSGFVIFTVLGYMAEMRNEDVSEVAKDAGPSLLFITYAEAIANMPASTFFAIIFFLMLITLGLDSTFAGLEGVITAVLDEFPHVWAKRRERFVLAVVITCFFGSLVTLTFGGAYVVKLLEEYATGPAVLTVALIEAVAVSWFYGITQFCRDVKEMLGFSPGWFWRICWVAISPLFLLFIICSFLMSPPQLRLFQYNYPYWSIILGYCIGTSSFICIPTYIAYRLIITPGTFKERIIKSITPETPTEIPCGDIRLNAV
Sodium-dependent dopamine transporter (Homo sapiens), sequence (Q01959 whole entry): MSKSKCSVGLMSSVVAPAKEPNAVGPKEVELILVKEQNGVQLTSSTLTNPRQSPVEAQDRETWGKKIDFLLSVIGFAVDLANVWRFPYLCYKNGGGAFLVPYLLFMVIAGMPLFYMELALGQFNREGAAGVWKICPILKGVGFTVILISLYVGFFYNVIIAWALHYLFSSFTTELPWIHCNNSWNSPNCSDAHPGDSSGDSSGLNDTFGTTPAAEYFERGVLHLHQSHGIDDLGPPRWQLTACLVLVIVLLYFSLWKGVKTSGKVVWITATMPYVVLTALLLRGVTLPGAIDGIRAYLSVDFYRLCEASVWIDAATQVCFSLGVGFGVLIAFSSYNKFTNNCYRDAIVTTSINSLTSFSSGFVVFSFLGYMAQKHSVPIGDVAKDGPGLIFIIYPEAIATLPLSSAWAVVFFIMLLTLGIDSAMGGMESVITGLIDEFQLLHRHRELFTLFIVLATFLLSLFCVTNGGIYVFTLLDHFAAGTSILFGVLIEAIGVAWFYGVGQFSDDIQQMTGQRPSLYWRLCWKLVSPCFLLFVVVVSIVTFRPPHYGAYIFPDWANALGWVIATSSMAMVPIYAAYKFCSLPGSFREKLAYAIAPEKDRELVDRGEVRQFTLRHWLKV

Take `COc1ccc(CN(CCN2CCN(C/C=C/c3ccccc3)CC2)c2ccccn2)cc1`: the pKD in experiment [1] was found to be 5.66; in experiment [2] it was 6.64.

In the case of `c1ccc(CCCN2CCN(CCCN(Cc3ccccc3)c3ccccc3)CC2)cc1`, the Log 1/C in experiment [3] is 6.07 and 5.83.

For `Fc1ccc(CN(CCCN2CCN(CCCc3ccccc3)CC2)c2ccc(F)cc2)cc1`, the Log 1/C in experiment [3] was 6.82. Moreover, the pKD in experiment [1] amounted to 7.86; in experiment [2], 6.48.

For the molecule `Fc1ccc(C(OCCN2CCN(C/C=C/c3ccccc3)CC2)c2ccc(F)cc2)cc1` (stereo in doubt; 15), in experiment [3], the Log 1/C is 7.08. The pKD was found to be 8.11 in experiment [1] and 6.44 in experiment [2].

In experiment [2], `COc1ccc(C(OCCN2CCN(C/C=C/c3ccccc3)CC2)c2ccccc2)cc1` (stereo not drawn) yielded a pKD of 6.16.

With `Cc1ccc(/C=C/CN2CCN(CCOC(c3ccc(F)cc3)c3ccc(F)cc3)CC2)cc1`, the Log 1/C in experiment [3] was found to be 6.43. The results for the negative logarithm of the KD (pKD) in experiment [1] and in experiment [2] were 7.32 and 6.18, respectively.

For `c1ccc(CCCN2CCN(CCCCCN(Cc3ccccc3)c3ccccc3)CC2)cc1`, in experiment [3], the Log 1/C stood at 5.83. Moreover, the negative-log KD (pKD) in experiment [1] was determined as 7.5; in experiment [2] it was 6.63.

For the molecule `COc1ccc(/C=C/CN2CCN(CCOC(c3ccc(F)cc3)c3ccc(F)cc3)CC2)cc1`, in experiment [3], the Log 1/C came to 6.47. For the same molecule, the pKD came out at 7.19 in experiment [1] and 6.43 in experiment [2].

Take `Cc1ccc(C(OCCN2CCN(C/C=C/c3ccccc3)CC2)c2ccccc2)cc1` (stereo not drawn): in experiment [3], the Log 1/C was determined as 6.78. For the same molecule, the pKD in experiment [1] is 6.95; in experiment [2], 5.95.

For the molecule `COc1ccc(CN(CCCN2CCN(CCCc3ccccc3)CC2)c2ccccn2)cc1`, in experiment [3], the Log 1/C was 7.08. Also, the pKD is 7.8 in experiment [1] and 7.23 in experiment [2].

Regarding `COc1cccc(C(OCCN2CCN(C/C=C/c3ccccc3)CC2)c2cccc(Br)c2)c1` (stereo not drawn), the Log 1/C in experiment [3] was 6.05. Besides, the pKD in experiment [1] was 6.88; in experiment [2] it was 6.13.

`C(=C\c1ccccc1)/CN1CCN(CCN(Cc2ccccc2)c2ccccc2)CC1`: the Log 1/C in experiment [3] amounted to 6.74. The pKD turned out to be 6.35 in experiment [1] and 6.22 in experiment [2].

Consider `Fc1ccc(C(OCCN2CCN(C/C=C/c3ccccc3)CC2)c2ccc(Cl)cc2)cc1` (stereo not drawn), for which the Log 1/C in experiment [3] was found to be 6.7. The pKD in experiment [1] was found to be 8.41; in experiment [2], 6.72.

On to `Fc1ccc(C(OCCN2CCN(C/C=C/c3ccccc3)CC2)c2ccc(F)cc2)cc1` (stereo in doubt; 26), for which the Log 1/C in experiment [3] was 6.97. In addition, the pKD in experiment [1] worked out at 6.39; in experiment [2] it was 6.02.

As to `O=C(/C=C/c1c(Cl)cccc1Cl)N1CCN(CCOC(c2ccc(F)cc2)c2ccc(F)cc2)CC1`, the figures for the pKD in experiment [1] and in experiment [2] were 5.82 and 6.68, respectively.

`O=C(/C=C/c1ccc(Cl)cc1)N1CCN(CCOC(c2ccc(F)cc2)c2ccc(F)cc2)CC1`: the Log 1/C in experiment [3] is 5.44. Besides, the pKD in experiment [1] turned out to be 6.37; in experiment [2], 7.14.

On to `Fc1ccc(/C=C/CN2CCN(CCOC(c3ccc(F)cc3)c3ccc(F)cc3)CC2)cc1`, for which the Log 1/C in experiment [3] came to 6.96. In addition, the pKD in experiment [1] was 8.41; in experiment [2] it was 6.64.

On to `Brc1ccc(CN(CCN2CCN(CCCc3ccccc3)CC2)c2ccc(Br)cc2)cc1`, for which the negative-log KD (pKD) came out at 6.01 in experiment [1] and 5.79 in experiment [2].

Regarding `COc1ccc(OC)c(/C=C/CN2CCN(CCOC(c3ccc(F)cc3)c3ccc(F)cc3)CC2)c1`, in experiment [3], the Log 1/C came out at 6.43. For the same molecule, the pKD came to 8.42 in experiment [1] and 6.74 in experiment [2].

On to `Fc1ccc(/C=C/CN2CCN(CCOC(c3ccccc3)c3ccccc3)CC2)cc1`, for which, in experiment [3], the Log 1/C worked out at 7.26. In addition, the pKD was 7.8 in experiment [1] and 5.88 in experiment [2].

As to `Fc1ccc(C(OCCN2CCN(C/C=C/Cc3ccccc3)CC2)c2ccc(F)cc2)cc1`, in experiment [3], the Log 1/C was found to be 6.86. In addition, the values for the negative logarithm of the KD (pKD) in experiment [1] and in experiment [2] were 8.29 and 7.14, respectively.

In the case of `c1ccc(CCCN2CCN(CCCCN(Cc3ccccc3)c3ccccc3)CC2)cc1`, the Log 1/C in experiment [3] came out at 5.76. In addition, the pKD was 7.86 in experiment [1] and 6.88 in experiment [2].

Regarding `O=C(CCCN1CCN(CCCc2ccccc2)CC1)N(Cc1ccccc1)c1ccccn1`, the Log 1/C in experiment [3] came out at 6.61. In addition, the negative logarithm of the KD (pKD) in experiment [1] was 6.25; in experiment [2], 5.88.

Consider `Cc1ccc(/C=C/C(=O)N2CCN(CCOC(c3ccc(F)cc3)c3ccc(F)cc3)CC2)cc1`, for which, in experiment [3], the Log 1/C amounted to 5.21. In addition, the pKD stood at 6.1 in experiment [1] and 6.71 in experiment [2].

For the molecule `Fc1ccc(CCCN2CCN(CCOC(c3ccc(F)cc3)c3ccc(F)cc3)CC2)cc1`, in experiment [3], the Log 1/C was 6.42. Also, the pKD in experiment [1] amounted to 8.25; in experiment [2] it was 6.44.

Take `COc1ccc(CN(CCN2CCN(CCCc3ccccc3)CC2)c2ccccn2)cc1`: the Log 1/C in experiment [3] came out at 6.57. Moreover, the negative logarithm of the KD (pKD) in experiment [1] was 6.66; in experiment [2] it was 6.79.

`CN(CCc1ccccc1)CCN1CCN(CCCc2ccccc2)CC1`: the Log 1/C in experiment [3] turned out to be 6.85. The negative logarithm of the KD (pKD) was 6.26 in experiment [1] and 5.58 in experiment [2].

For `COc1ccc(N(CCN2CCN(C/C=C/c3ccccc3)CC2)Cc2ccccc2)cc1`, in experiment [2], the pKD is 6.55.

For the molecule `Clc1ccc(C(OCCN2CCN(C/C=C/c3ccccc3)CC2)c2ccc(Cl)cc2)cc1`, the Log 1/C in experiment [3] was 6.62. Also, the pKD amounted to 7.42 in experiment [1] and 6.48 in experiment [2].

Regarding `Fc1ccc(C(OCCN2CCN(CCCc3ccccc3)CC2)c2ccccc2)cc1` (stereo not drawn), in experiment [3], the Log 1/C was determined as 7.8. For the same molecule, the pKD is 7.69 in experiment [1] and 6.21 in experiment [2].

As to `C(=C\c1ccccc1)/CN1CCN(CCN(Cc2ccccc2)c2ccccn2)CC1`, the Log 1/C in experiment [3] was determined as 6.1. The pKD in experiment [1] was determined as 6; in experiment [2] it was 6.17.

Turning to `Fc1ccc(C(OCCN2CCN(C/C=C/c3ccccc3)CC2)c2ccccc2)cc1` (stereo not drawn), the Log 1/C in experiment [3] came to 7.1. For the same molecule, the values for the negative logarithm of the KD (pKD) in experiment [1] and in experiment [2] were 7.48 and 6.67, respectively.

For the molecule `O=C(CN1CCN(CCCc2ccccc2)CC1)N(Cc1ccccc1)c1ccccc1`, the Log 1/C in experiment [3] was determined as 6.28. The negative logarithm of the KD (pKD) came to 5.97 in experiment [1] and 5.54 in experiment [2].

On to `c1ccc(CCCN2CCN(CCN(Cc3ccccc3)c3ccccn3)CC2)cc1`, for which the Log 1/C in experiment [3] stood at 6.91. In addition, the pKD in experiment [1] was determined as 7.04; in experiment [2] it was 6.28.

Regarding `COc1ccc(OC)c(/C=C/C(=O)N2CCN(CCOC(c3ccc(F)cc3)c3ccc(F)cc3)CC2)c1`, the negative-log KD (pKD) in experiment [1] worked out at 6.25; in experiment [2], 6.69.

For the molecule `O=C(CCCN1CCN(CCCc2ccccc2)CC1)N(Cc1ccccc1)c1ccccc1`, the Log 1/C in experiment [3] came out at 7.12. The values for the negative logarithm of the KD (pKD) in experiment [1] and in experiment [2] were 7.56 and 6.28, respectively.

As to `Fc1ccc(CCCN2CCN(CCOC(c3ccccc3)c3ccccc3)CC2)cc1`, the Log 1/C in experiment [3] is 6.41. Moreover, the negative logarithm of the KD (pKD) in experiment [1] was 7.4; in experiment [2], 5.74.

On to `COc1ccc(N(CCN2CCN(CCCc3ccccc3)CC2)Cc2ccccc2)cc1`, for which the Log 1/C in experiment [3] was 6.67. In addition, the pKD in experiment [1] was 6.04; in experiment [2], 6.59.

For the molecule `O=C(/C=C/c1ccccc1Cl)N1CCN(CCOC(c2ccc(F)cc2)c2ccc(F)cc2)CC1`, the Log 1/C in experiment [3] was 5.24. Further, the results for the negative logarithm of the KD (pKD) in experiment [1] and in experiment [2] were 6.14 and 6.77, respectively.

For the molecule `O=C(CCCCN1CCN(CCCc2ccccc2)CC1)N(Cc1ccccc1)c1ccccc1`, the Log 1/C in experiment [3] is 6.92. Besides, the results for the negative-log KD (pKD) in experiment [1] and in experiment [2] were 7.24 and 6.69, respectively.

As to `Fc1ccc(C(OCCN2CCN(CCCc3ccc(Cl)cc3)CC2)c2ccc(F)cc2)cc1`, the Log 1/C in experiment [3] worked out at 7.3. Also, the pKD is 8.09 in experiment [1] and 6.81 in experiment [2].

As to `Fc1ccc(CCCN2CCN(CCOC(c3ccccc3)c3ccc(F)cc3)CC2)cc1` (stereo not drawn), the Log 1/C in experiment [3] amounted to 7.49. Moreover, the pKD was 7.51 in experiment [1] and 6.33 in experiment [2].

Take `Fc1ccc(/C=C/CN2CCN(CCOC(c3ccccc3)c3ccc(F)cc3)CC2)cc1` (stereo not drawn): the Log 1/C in experiment [3] is 7.22. Besides, the pKD in experiment [1] turned out to be 7.64; in experiment [2], 6.7.

Regarding `Fc1ccc(CN(CCN2CCN(CCCc3ccccc3)CC2)c2ccccn2)cc1`, in experiment [3], the Log 1/C was 6.24. Also, the pKD in experiment [1] turned out to be 7.19; in experiment [2] it was 6.64.

Turning to `Fc1ccc(C(OCCN2CCN(C/C=C/c3ccccc3)CC2)c2ccc(F)cc2)cc1` (stereo in doubt; 24), in experiment [3], the Log 1/C was 8.38. Also, the pKD in experiment [1] was found to be 7.76; in experiment [2], 7.79.

In the case of `Fc1ccc(CN(CCN2CCN(CCCc3ccccc3)CC2)c2ccc(F)cc2)cc1`, the pKD in experiment [1] was 7.28; in experiment [2] it was 6.57.

`Fc1ccc(C(OCCN2CCN(Cc3ccccc3)CC2)c2ccc(F)cc2)cc1`: the Log 1/C in experiment [3] was 6.12. Moreover, the pKD in experiment [1] was 7.01; in experiment [2], 6.74.

For `Cc1ccc(CN(CCN2CCN(CCCc3ccccc3)CC2)c2ccccc2)cc1`, in experiment [3], the Log 1/C came to 5.49. Besides, the pKD in experiment [1] came out at 6.37; in experiment [2], 6.09.

Turning to `Fc1ccc(C(OCCN2CCN(C/C=C/c3ccccc3)CC2)c2ccc(Cl)cc2Cl)cc1` (stereo not drawn), the Log 1/C in experiment [3] was 5.86. The negative-log KD (pKD) in experiment [1] stood at 7.18; in experiment [2] it was 6.28.

As for `Fc1ccc(C(OCCN2CCN(C/C=C/c3ccc(Cl)cc3)CC2)c2ccc(F)cc2)cc1`, in experiment [3], the Log 1/C worked out at 6.66. Also, the pKD in experiment [1] amounted to 7.65; in experiment [2] it was 6.09.

For `Fc1ccc(CN(CCCN2CCN(CCCc3ccccc3)CC2)c2ccccn2)cc1`, in experiment [3], the Log 1/C turned out to be 6.91. For the same molecule, the pKD in experiment [1] stood at 7.95; in experiment [2] it was 6.55.

For `c1ccc(CCCN2CCN(CCN(Cc3ccccc3)c3ccccc3)CC2)cc1`, the Log 1/C in experiment [3] was 5.96. Moreover, the pKD in experiment [1] was found to be 6.66; in experiment [2], 5.92.

As for `COc1ccc(/C=C/C(=O)N2CCN(CCOC(c3ccc(F)cc3)c3ccc(F)cc3)CC2)cc1`, in experiment [3], the Log 1/C was found to be 5.87. The pKD in experiment [1] was found to be 6.31; in experiment [2], 6.85.

As a reminder, the pKD is the negative decadic logarithm of the KD, by convention in mol/L. A higher pKD goes with a low KD.
